# Measured values taken from ChEMBL document CHEMBL1201862, “PubChem BioAssay data set” (2004).
#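 Results reflect a 48-hour exposure of cells in 96-well plates to compound at five concentrations. The concentration for 50% growth inhibition is given as GI50.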 Active and inactive are the calls of the source. No stated cut-off is given here; in the data, active = GI50 up to about 1.1 µM and inactive = higher.
# Assays:
# Experiment in all cases: inhibition of tumour cell growth, NCI panel, 48 h
# [1] = tested on: HOP-92
# [2] = tested on: SK-MEL-2
# [3] = tested on: M14
# [4] = tested on: HCT-116
# [5] = tested on: SW-620
# [6] = tested on: T47D
# [7] = tested on: RPMI-8226
# [8] = tested on: HCC 2998
# [9] = tested on: 786-0
# [10] = tested on: SR
# [11] = tested on: UACC-62
# [12] = tested on: HL-60
# [13] = tested on: SNB-19
# [14] = tested on: SF-539
# [15] = tested on: NCI-H23
# [16] = tested on: A498
# [17] = tested on: PC-3
# [18] = tested on: SK-MEL-28
# [19] = tested on: EKVX
# [20] = tested on: Hs-578T
# [21] = tested on: HT-29
# [22] = tested on: MDA-N
# [23] = tested on: BT-549
# [24] = tested on: SN12C
# [25] = tested on: NCI/ADR-RES
# [26] = tested on: NCI-H460
# [27] = tested on: RXF 393
# [28] = tested on: HCT-15
# [29] = tested on: U-251
# [30] = tested on: DU-145
# [31] = tested on: OVCAR-5
# [32] = tested on: SF-295
# [33] = tested on: OVCAR-4
# [34] = tested on: SNB-75
# [35] = tested on: NCI-H226
# [36] = tested on: IGROV-1
# [37] = tested on: ACHN
# [38] = tested on: SK-MEL-5
# [39] = tested on: NCI-H522
# [40] = tested on: COLO 205
# [41] = tested on: MOLT-4
# [42] = tested on: CCRF-CEM
# [43] = tested on: OVCAR-8
# [44] = tested on: OVCAR-3
# [45] = tested on: K562
# [46] = tested on: UACC-257
# [47] = tested on: SF-268
# [48] = tested on: MCF7
# [49] = tested on: MDA-MB-435
# [50] = tested on: A549
# [51] = tested on: LOX IMVI
# [52] = tested on: TK-10
# [53] = tested on: CAKI-1
# [54] = tested on: HOP-62
# [55] = tested on: Malme-3M
# [56] = tested on: KM12
# [57] = tested on: UO-31
# [58] = tested on: MDA-MB-231
# [59] = tested on: SK-OV-3
smiles,measurement,setting,value
O=C(O)c1ccccc1/C=C1/Cc2ccc3c(c2C1=O)CCC3,GI50,[1],24.9 µM (inactive)
same,GI50,[2],12.7 µM (inactive)
same,GI50,[3],35.5 µM (inactive)
same,GI50,[4],30.7 µM (inactive)
same,GI50,[5],58.9 µM (inactive)
same,GI50,[6],89.3 µM (inactive)
same,GI50,[7],22.4 µM (inactive)
same,GI50,[8],30.5 µM (inactive)
same,GI50,[9],49 µM (inactive)
same,GI50,[10],39.1 µM (inactive)
same,GI50,[11],38.9 µM (inactive)
same,GI50,[12],20.1 µM (inactive)
same,GI50,[13],54.7 µM (inactive)
same,GI50,[14],23.9 µM (inactive)
same,GI50,[15],35.6 µM (inactive)
same,GI50,[16],38.3 µM (inactive)
same,GI50,[17],42.9 µM (inactive)
same,GI50,[18],42.8 µM (inactive)
same,GI50,[19],48.1 µM (inactive)
same,GI50,[20],32.2 µM (inactive)
same,GI50,[21],44.7 µM (inactive)
same,GI50,[22],29.6 µM (inactive)
same,GI50,[23],22.9 µM (inactive)
same,GI50,[24],51.8 µM (inactive)
same,GI50,[25],50.2 µM (inactive)
same,GI50,[26],45.4 µM (inactive)
same,GI50,[27],38.2 µM (inactive)
same,GI50,[28],33.6 µM
same,GI50,[29],27.6 µM (inactive)
same,GI50,[30],68.9 µM (inactive)
same,GI50,[31],20.9 µM (inactive)
same,GI50,[32],42.4 µM (inactive)
same,GI50,[33],29.8 µM (inactive)
same,GI50,[34],39.4 µM (inactive)
same,GI50,[35],36.2 µM (inactive)
same,GI50,[36],43.6 µM (inactive)
same,GI50,[37],37.7 µM (inactive)
same,GI50,[38],18.2 µM (inactive)
same,GI50,[39],42.4 µM (inactive)
same,GI50,[40],19.1 µM (inactive)
same,GI50,[41],33.8 µM (inactive)
same,GI50,[42],38.9 µM (inactive)
same,GI50,[43],48.1 µM (inactive)
same,GI50,[44],31.8 µM (inactive)
same,GI50,[45],33.3 µM (inactive)
same,GI50,[46],41.8 µM (inactive)
same,GI50,[47],36.1 µM (inactive)
same,GI50,[48],49.5 µM (inactive)
same,GI50,[49],26.3 µM (inactive)
same,GI50,[50],44.7 µM (inactive)
same,GI50,[51],19.1 µM (inactive)
same,GI50,[52],90.8 µM (inactive)
same,GI50,[53],> 100 µM (inactive)
same,GI50,[54],68.9 µM (inactive)
same,GI50,[55],50.8 µM (inactive)
same,GI50,[56],37.8 µM (inactive)
same,GI50,[57],39.7 µM (inactive)
CC(=O)c1c(N=[N+]=[N-])c2cccc3c2n(c1=O)CCC3,GI50,[1],31.8 µM (inactive)
same,GI50,[2],21.7 µM (inactive)
same,GI50,[3],13.6 µM (inactive)
same,GI50,[4],15.6 µM (inactive)
same,GI50,[5],16 µM (inactive)
same,GI50,[6],22.6 µM (inactive)
same,GI50,[58],13.9 µM (inactive)
same,GI50,[7],25.9 µM (inactive)
same,GI50,[8],16.9 µM (inactive)
same,GI50,[9],14.7 µM (inactive)
same,GI50,[10],36.7 µM (inactive)
same,GI50,[11],16.5 µM (inactive)
same,GI50,[13],32.3 µM (inactive)
same,GI50,[14],27.9 µM (inactive)
same,GI50,[15],20.8 µM (inactive)
same,GI50,[16],21.3 µM (inactive)
same,GI50,[17],17.3 µM (inactive)
same,GI50,[19],21.3 µM (inactive)
same,GI50,[20],22.9 µM (inactive)
same,GI50,[21],16.4 µM (inactive)
same,GI50,[22],18.5 µM (inactive)
same,GI50,[23],20.4 µM (inactive)
same,GI50,[24],22.1 µM (inactive)
same,GI50,[25],19.2 µM (inactive)
same,GI50,[26],14.4 µM (inactive)
same,GI50,[27],20.5 µM (inactive)
same,GI50,[28],19.7 µM
same,GI50,[29],17.3 µM (inactive)
same,GI50,[31],15.2 µM (inactive)
same,GI50,[32],24.7 µM (inactive)
same,GI50,[33],21 µM (inactive)
same,GI50,[34],24.8 µM (inactive)
same,GI50,[35],22.9 µM (inactive)
same,GI50,[36],20.1 µM (inactive)
same,GI50,[37],24.9 µM (inactive)
same,GI50,[38],14.7 µM (inactive)
same,GI50,[39],13.9 µM (inactive)
same,GI50,[40],21.4 µM (inactive)
same,GI50,[41],23.4 µM (inactive)
same,GI50,[42],19.1 µM (inactive)
same,GI50,[43],0.957 µM (active)
same,GI50,[44],4.21 µM (inactive)
same,GI50,[45],21.8 µM (inactive)
same,GI50,[59],46.7 µM (inactive)
same,GI50,[46],16.6 µM (inactive)
same,GI50,[47],18.6 µM (inactive)
same,GI50,[48],19.8 µM (inactive)
same,GI50,[49],19.1 µM (inactive)
same,GI50,[50],29 µM (inactive)
same,GI50,[51],15.1 µM (inactive)
same,GI50,[52],25.4 µM (inactive)
same,GI50,[53],28.3 µM (inactive)
same,GI50,[54],20 µM (inactive)
same,GI50,[55],13.2 µM (inactive)
same,GI50,[56],14.6 µM (inactive)
same,GI50,[57],30.2 µM (inactive)
